Assay results: PubChem BioAssay AID248 (DTP/NCI, 2004)
Where “and” joins values, the source holds several entries; their conditions need not be identical. Identical values can stand only once. Inconclusive results and toxic doses are left out. No stated cut-off is given here; in the data, active means T/C of 150% or more; inactive means T/C below 125%.

System: L1210 leukemia ip in BDF1 mice, survival T/C
Assay: NCI In Vivo Anticancer Drug Screen. Data for tumor model L1210 Leukemia (intraperitoneal) in B6D2F1 (BDF1) mice
Conditions: endpoint: mean survival time, higher = longer survival
In short: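 Transplanted-tumor mice were given test agent; controls received vehicle only. Survival readings from the two groups were divided (treated over control).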

[1] = dose: 100.0 mg/kg/injection, schedule: Q01DX001 (ip), vehicle: saline
[2] = dose: 200.0 mg/kg/injection, schedule: Q01DX001 (ip), vehicle: saline
[3] = dose: 400.0 mg/kg/injection, schedule: Q01DX001 (ip), vehicle: saline
[4] = dose: 100.0 mg/kg/injection, schedule: Q01DX009 (ip), vehicle: Klucel (hydroxypropylcellulose) (HPC)
[5] = dose: 200.0 mg/kg/injection, schedule: Q01DX009 (ip), vehicle: Klucel (hydroxypropylcellulose) (HPC)
[6] = dose: 400.0 mg/kg/injection, schedule: Q01DX009 (ip), vehicle: Klucel (hydroxypropylcellulose) (HPC)
[7] = dose: 100.0 mg/kg/injection, schedule: Q01DX001 (ip), vehicle: carboxymethylcellulose (CMC)
[8] = dose: 200.0 mg/kg/injection, schedule: Q01DX001 (ip), vehicle: carboxymethylcellulose (CMC)
[9] = dose: 400.0 mg/kg/injection, schedule: Q01DX001 (ip), vehicle: carboxymethylcellulose (CMC)

Measured: T/C

CC1OC(n2cnc3c(N)ncnc32)C(O)C1O (stereo not drawn)
inactive: dose: 50.0 mg/kg/injection, schedule: Q01DX001 (sc), vehicle: carboxymethylcellulose (CMC) 104 % of control | dose: 100.0 mg/kg/injection, schedule: Q01DX001 (sc), vehicle: carboxymethylcellulose (CMC) 90 % of control | dose: 200.0 mg/kg/injection, schedule: Q01DX001 (sc), vehicle: carboxymethylcellulose (CMC) 93 % of control | dose: 400.0 mg/kg/injection, schedule: Q01DX001 (sc), vehicle: carboxymethylcellulose (CMC) 106 % of control

O=c1[nH]cc(CN(CCO)CCO)c(=O)[nH]1
inactive: dose: 100.0 mg/kg/injection, schedule: Q01DX Z (ip), vehicle: saline 101 % of control | dose: 200.0 mg/kg/injection, schedule: Q01DX Z (ip), vehicle: saline 103 % of control

CC(Oc1ccccc1)C(=O)NC(=S)Nc1cc(Cl)ccc1Cl (stereo not drawn)
inactive: dose: 100.0 mg/kg/injection, schedule: Q01DX001 (ip), vehicle: other 93 % of control | dose: 100.0 mg/kg/injection, schedule: Q01DX009 (ip), vehicle: other 94 % of control and 89 % of control | dose: 100.0 mg/kg/injection, schedule: Q04DX002 (ip), vehicle: other 119 % of control and 90 % of control | dose: 200.0 mg/kg/injection, schedule: Q01DX001 (ip), vehicle: other 88 % of control | dose: 200.0 mg/kg/injection, schedule: Q01DX009 (ip), vehicle: other 96 % of control and 89 % of control | dose: 200.0 mg/kg/injection, schedule: Q04DX002 (ip), vehicle: other 94 % of control and 102 % of control | dose: 400.0 mg/kg/injection, schedule: Q01DX009 (ip), vehicle: other 88 % of control | dose: 400.0 mg/kg/injection, schedule: Q04DX002 (ip), vehicle: other 102 % of control

Clc1cc[n+](-c2ccncc2)cc1
inactive: [1] 103 % of control | dose: 100.0 mg/kg/injection, schedule: Q01DX009 (ip), vehicle: saline 100 % of control and 105 % of control | dose: 100.0 mg/kg/injection, schedule: Q04DX002 (ip), vehicle: saline 97 % of control and 103 % of control | dose: 100.0 mg/kg/injection, schedule: Q04DX003 (ip), vehicle: saline 95 % of control | [2] 90 % of control | dose: 200.0 mg/kg/injection, schedule: Q01DX009 (ip), vehicle: saline 105 % of control and 89 % of control | dose: 200.0 mg/kg/injection, schedule: Q04DX002 (ip), vehicle: saline 94 % of control and 89 % of control | dose: 200.0 mg/kg/injection, schedule: Q04DX003 (ip), vehicle: saline 101 % of control | [3] 97 % of control | dose: 400.0 mg/kg/injection, schedule: Q01DX009 (ip), vehicle: saline 97 % of control | dose: 400.0 mg/kg/injection, schedule: Q04DX002 (ip), vehicle: saline 100 % of control and 92 % of control | dose: 400.0 mg/kg/injection, schedule: Q04DX003 (ip), vehicle: saline 88 % of control

CC(=O)Nc1cc(Cl)c(Cl)c([N+](=O)[O-])c1
inactive: [4] 100 % of control | [5] 97 % of control

CCS(=O)(=O)/C=C(\C(=O)c1ccccc1)c1ccccc1
inactive: [4] 98 % of control | [5] 97 % of control | [6] 93 % of control

O=C(O)c1ccccc1C(=O)OC1CCCC2CCCC21 (stereo not drawn)
inactive: [7] 95 % of control and 96 % of control | [8] 101 % of control and 98 % of control | [9] 90 % of control and 98 % of control

S=C=Nc1cccc2c(N=C=S)cccc12
inactive: dose: 50.0 mg/kg/injection, schedule: Q01DX001 (ip), vehicle: saline 98 % of control | [1] 98 % of control | [2] 110 % of control | [3] 119 % of control

CCC(C)SC1=NC(N)=NC2=NC=NC21 (stereo not drawn)
inactive: dose: 50.0 mg/kg/injection, schedule: Q04DX003 (ip), vehicle: carboxymethylcellulose (CMC) 118 % of control | dose: 100.0 mg/kg/injection, schedule: Q04DX003 (ip), vehicle: carboxymethylcellulose (CMC) 122 % of control

CN(Cc1cnc2cc(N)[nH]c(=O)c2n1)c1ccc(C(=O)NC(CCC(=O)O)C(=O)O)cc1 (stereo not drawn)
inactive: dose: 100.0 mg/kg/injection, schedule: Q04DX002 (ip), vehicle: water 94 % of control | dose: 200.0 mg/kg/injection, schedule: Q04DX002 (ip), vehicle: water 99 % of control | dose: 400.0 mg/kg/injection, schedule: Q04DX002 (ip), vehicle: water 118 % of control

O=C(/C=C/c1ccco1)c1cccc([N+](=O)[O-])c1
inactive: dose: 100.0 mg/kg/injection, schedule: Q01DX001 (ip), vehicle: saline with Tween-80 97 % of control | dose: 200.0 mg/kg/injection, schedule: Q01DX001 (ip), vehicle: saline with Tween-80 95 % of control | dose: 400.0 mg/kg/injection, schedule: Q01DX001 (ip), vehicle: saline with Tween-80 92 % of control

C=CCN(CC=C)C(=O)Nc1ccc(C(=O)N/N=C/c2cccc(OC)c2OC)cc1
inactive: [4] 103 % of control and 88 % of control | dose: 100.0 mg/kg/injection, schedule: Q04DX002 (ip), vehicle: Klucel (hydroxypropylcellulose) (HPC) 95 % of control and 105 % of control | [5] 100 % of control and 88 % of control | dose: 200.0 mg/kg/injection, schedule: Q04DX002 (ip), vehicle: Klucel (hydroxypropylcellulose) (HPC) 94 % of control and 101 % of control | [6] 95 % of control | dose: 400.0 mg/kg/injection, schedule: Q04DX002 (ip), vehicle: Klucel (hydroxypropylcellulose) (HPC) 97 % of control and 105 % of control

Cc1ccc(N(CCO)CCO)cc1NC(=O)c1ccccc1
inactive: [7] 103 % of control | [8] 101 % of control | [9] 101 % of control

Cc1ccc(C(=O)C=Nc2ccc(O)cc2)cc1
inactive: dose: 12.5 mg/kg/injection, schedule: Q04DX002 (ip), vehicle: Klucel (hydroxypropylcellulose) (HPC) 94 % of control | dose: 25.0 mg/kg/injection, schedule: Q04DX002 (ip), vehicle: Klucel (hydroxypropylcellulose) (HPC) 97 % of control | dose: 50.0 mg/kg/injection, schedule: Q04DX002 (ip), vehicle: Klucel (hydroxypropylcellulose) (HPC) 102 % of control

Brc1cccc[n+]1-c1cc(-[n+]2ccccc2Br)cc(-[n+]2ccccc2Br)c1
inactive: dose: 1.17 mg/kg/injection, schedule: Q01DX001 (ip), vehicle: other 95 % of control | dose: 2.34 mg/kg/injection, schedule: Q01DX001 (ip), vehicle: other 102 % of control | dose: 4.69 mg/kg/injection, schedule: Q01DX001 (ip), vehicle: other 101 % of control

O=C(C1CC1c1ccccc1)N1CCC(O)(c2ccccc2)CC1 (stereo not drawn)
inactive: dose: 100.0 mg/kg/injection, schedule: Q04DX002 (ip), vehicle: saline with Tween-80 103 % of control | dose: 200.0 mg/kg/injection, schedule: Q04DX002 (ip), vehicle: saline with Tween-80 100 % of control | dose: 400.0 mg/kg/injection, schedule: Q04DX002 (ip), vehicle: saline with Tween-80 97 % of control

OC(c1ccccc1)C(Nc1ccccc1)c1ccccc1 (stereo not drawn)
inactive: dose: 75.0 mg/kg/injection, schedule: Q01DX001 (ip), vehicle: saline 102 % of control | dose: 100.0 mg/kg/injection, schedule: Q04DX003 (ip), vehicle: saline with Tween-80 96 % of control | dose: 150.0 mg/kg/injection, schedule: Q01DX001 (ip), vehicle: saline 94 % of control | dose: 200.0 mg/kg/injection, schedule: Q04DX003 (ip), vehicle: saline with Tween-80 98 % of control | dose: 300.0 mg/kg/injection, schedule: Q01DX001 (ip), vehicle: saline 97 % of control | dose: 400.0 mg/kg/injection, schedule: Q04DX003 (ip), vehicle: saline with Tween-80 93 % of control

CCOC(=O)CCC(I)C(=O)OCC (stereo not drawn)
inactive: dose: 3.75 mg/kg/injection, schedule: Q01DX010 (ip), vehicle: saline 98 % of control | dose: 15.0 mg/kg/injection, schedule: Q01DX010 (ip), vehicle: saline 90 % of control

O=C(O)C(Cl)(Br)C(Cl)c1ccccc1 (stereo not drawn)
inactive: dose: 100.0 mg/kg/injection, schedule: Q01DX009 (ip), vehicle: saline with Tween-80 93 % of control | dose: 200.0 mg/kg/injection, schedule: Q01DX009 (ip), vehicle: saline with Tween-80 91 % of control | dose: 400.0 mg/kg/injection, schedule: Q01DX009 (ip), vehicle: saline with Tween-80 95 % of control

CCOC(=O)C1C2OC(=O)C(C(=O)C2P2(=O)OCCN2CCCl)C1c1ccc(OC(C)=O)cc1 (stereo not drawn)
inactive: dose: 100.0 mg/kg/injection, schedule: Q04DX003 (ip), vehicle: Klucel (hydroxypropylcellulose) (HPC) 108 % of control | dose: 200.0 mg/kg/injection, schedule: Q04DX003 (ip), vehicle: Klucel (hydroxypropylcellulose) (HPC) 95 % of control | dose: 400.0 mg/kg/injection, schedule: Q04DX003 (ip), vehicle: Klucel (hydroxypropylcellulose) (HPC) 108 % of control
